Like-named read-outs stand apart in the source and are kept apart here.
System: panel of 55 breast cancer cell lines
Assay: Cell growth inhibition assay (Cell Titer Glo, 72 h, 9 doses; GI50, TGI, LC50)
Type: cell-based, human
Details: Homo sapiens, read-out: GI50 (converted)

## CC(C)C[C@H](NC(=O)[C@H](Cc1ccccc1)NC(=O)c1cnccn1)B(O)O [Bortezomib]
600MPE cell line, censored GI50 values
  GI50: 427 nM
AU565, AU565 cell line, censored GI50 values
  GI50: 5.25 nM
AU565, cell line AU565
  GI50: 5.25 nM
BT-20, BT20 cell line, censored GI50 values
  GI50: 46.8 nM
BT-20, cell line BT20
  GI50: 46.8 nM
BT-474, BT474 cell line, censored GI50 values
  GI50: 7.41 nM
BT-474, cell line BT474
  GI50: 7.41 nM
BT-483, BT483 cell line, censored GI50 values
  GI50: 19.5 nM
BT-483, cell line BT483
  GI50: 19.5 nM
BT-549, BT549 cell line, censored GI50 values
  GI50: 6.03 nM
BT-549, cell line BT549
  GI50: 6.03 nM
CAMA-1, CAMA1 cell line, censored GI50 values
  GI50: 16.6 nM
CAMA-1, cell line CAMA1
  GI50: 16.6 nM
HCC38, HCC38 cell line, censored GI50 values
  GI50: 11 nM
HCC38, cell line HCC38
  GI50: 11 nM
HCC70, HCC70 cell line, censored GI50 values
  GI50: 1.78 nM
HCC70, cell line HCC70
  GI50: 1.78 nM
HCC202, HCC202 cell line, censored GI50 values
  GI50: 7.24 nM
HCC202, cell line HCC202
  GI50: 7.24 nM
HCC1143, HCC1143 cell line, censored GI50 values
  GI50: 8.51 nM
HCC1143, cell line HCC1143
  GI50: 8.51 nM
HCC1187, HCC1187 cell line, censored GI50 values
  GI50: 3.39 nM
HCC1187, cell line HCC1187
  GI50: 3.39 nM
HCC1395, HCC1395 cell line, censored GI50 values
  GI50: 7.24 nM
HCC1395, cell line HCC1395
  GI50: 7.24 nM
HCC1419, HCC1419 cell line, censored GI50 values
  GI50: 4.37 nM
HCC1419, cell line HCC1419
  GI50: 4.37 nM
HCC1428, HCC1428 cell line, censored GI50 values
  GI50: 91.2 nM
HCC1428, cell line HCC1428
  GI50: 91.2 nM
HCC1500, HCC1500 cell line, censored GI50 values
  GI50: 12.3 nM
HCC1500, cell line HCC1500
  GI50: 12.3 nM
HCC1806, HCC1806 cell line, censored GI50 values
  GI50: 22.9 nM
HCC1806, cell line HCC1806
  GI50: 22.9 nM
HCC1937, HCC1937 cell line, censored GI50 values
  GI50: 7.59 nM
HCC1937, cell line HCC1937
  GI50: 7.59 nM
HCC1954, HCC1954 cell line, censored GI50 values
  GI50: 10 nM
HCC1954, cell line HCC1954
  GI50: 10 nM
HCC2185 cell line, censored GI50 values
  GI50: 4.47 nM
HCC3153 cell line, censored GI50 values
  GI50: 10.5 nM
LY2 cell line, censored GI50 values
  GI50: 603 nM
MCF7, MCF7 cell line, censored GI50 values
  GI50: 19.1 nM
MCF7, cell line MCF7
  GI50: 19.1 nM
MDA-MB-134-VI, MDAMB134VI cell line, censored GI50 values
  GI50: 8.32 nM
MDA-MB-157, MDAMB157 cell line, censored GI50 values
  GI50: 6.92 nM
MDA-MB-157, cell line MDAMB157
  GI50: 6.92 nM
MDA-MB-175-VII, MDAMB175VII cell line, censored GI50 values
  GI50: 5.25 nM
MDA-MB-231, MDAMB231 cell line, censored GI50 values
  GI50: 27.5 nM
MDA-MB-231, cell line MDAMB231
  GI50: 27.5 nM
MDA-MB-361, MDAMB361 cell line, censored GI50 values
  GI50: 6030 nM
MDA-MB-361, cell line MDAMB361
  GI50: 6030 nM
MDA-MB-415, MDAMB415 cell line, censored GI50 values
  GI50: 32.4 nM
MDA-MB-415, cell line MDAMB415
  GI50: 32.4 nM
MDA-MB-436, MDAMB436 cell line, censored GI50 values
  GI50: 8.71 nM
MDA-MB-436, cell line MDAMB436
  GI50: 8.71 nM
MDA-MB-453, MDAMB453 cell line, censored GI50 values
  GI50: 6.92 nM
MDA-MB-453, cell line MDAMB453
  GI50: 6.92 nM
MDA-MB-468, MDAMB468 cell line, censored GI50 values
  GI50: 14.1 nM
MDA-MB-468, cell line MDAMB468
  GI50: 14.1 nM
SK-BR-3, SKBR3 cell line, censored GI50 values
  GI50: 7.59 nM
SK-BR-3, cell line SKBR3
  GI50: 7.59 nM
SUM52PE, SUM52PE cell line, censored GI50 values
  GI50: 5.25 nM
SUM52PE, cell line SUM52PE
  GI50: 5.25 nM
SUM149PT, SUM149PT cell line, censored GI50 values
  GI50: 7.41 nM
SUM149PT, cell line SUM149PT
  GI50: 7.41 nM
SUM185PE, SUM185PE cell line, censored GI50 values
  GI50: 5.37 nM
SUM185PE, cell line SUM185PE
  GI50: 5.37 nM
SUM225CWN, SUM225CWN cell line, censored GI50 values
  GI50: 10.5 nM
SUM225CWN, cell line SUM225CWN
  GI50: 10.5 nM
SUM1315MO2, SUM1315MO2 cell line, censored GI50 values
  GI50: 13.8 nM
SUM-159-PT, SUM159PT cell line, censored GI50 values
  GI50: 7.41 nM
SUM-159-PT, cell line SUM159PT
  GI50: 7.41 nM
T47D, T47D cell line, censored GI50 values
  GI50: 8.32 nM
T47D, cell line T47D
  GI50: 8.32 nM
UACC-812, UACC812 cell line, censored GI50 values
  GI50: 24 nM
UACC-812, cell line UACC812
  GI50: 24 nM
UACC-893, UACC893 cell line, censored GI50 values
  GI50: 0.646 nM
UACC-893, cell line UACC893
  GI50: 0.646 nM
ZR-75-1, ZR751 cell line, censored GI50 values
  GI50: 17.4 nM
ZR-75-1, cell line ZR751
  GI50: 17.4 nM
ZR-75B, ZR75B cell line, censored GI50 values
  GI50: 132 nM
ZR-75B, cell line ZR75B
  GI50: 132 nM
Cell line 600MPE
  GI50: 427 nM
Cell line HCC2185
  GI50: 4.47 nM
Cell line HCC3153
  GI50: 10.5 nM
Cell line LY2
  GI50: 603 nM
Cell line MDAMB134V
  GI50: 8.32 nM
Cell line MDAMB175V
  GI50: 5.25 nM
Cell line SUM1315MO
  GI50: 13.8 nM

Source: patent publication US10770169B2, “Method of providing a treatment to a subject based on a dynamic pathway map” (THE REGENTS OF THE UNIVERSITY OF CALIFORNIA, priority 2010, dated 2020)
